Drawing on patent US20030109501A1, “High throughput assay for N-sulfotransferase activity of glucosaminyl N-deacetylase/N-sulfotransferases” (priority 2001, published 2003), this text covers IC50, inhibition and Km for three molecules.

Holding throughout (assay type): biochemical
For experiment [1], the target named is T1, recombinant human sulfotransferase domain of NDST-2 (ST2) (Homo sapiens, UniProt P52849).
T1 construct: subcloning the N-sulfotransferase domain of NDST-2 from the vector pFASTBac-GST-NDST-2; made in house; host or cells: E. coli BL21(DE3)pLysS
T1 sequence (P52849 598-883 limits assumed): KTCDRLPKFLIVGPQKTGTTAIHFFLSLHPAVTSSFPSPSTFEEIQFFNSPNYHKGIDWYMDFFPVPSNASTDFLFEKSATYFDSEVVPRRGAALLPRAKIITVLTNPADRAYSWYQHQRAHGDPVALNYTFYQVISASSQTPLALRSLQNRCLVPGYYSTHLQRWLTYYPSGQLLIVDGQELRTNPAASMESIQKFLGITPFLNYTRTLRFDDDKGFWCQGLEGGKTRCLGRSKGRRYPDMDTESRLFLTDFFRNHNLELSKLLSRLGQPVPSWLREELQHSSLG
The experiment in a line: Solid phase SPA assay for N-sulfotransferase activity (ST2). Particulars: ST2 2.5 μg/well, room temperature 5 h; for IC50: fully desulfated heparin pre-coated WGA-SPA beads, 35[S]-PAPS 10 nCi/well. The procedure: (§1) The assays were conducted at room temperature in Reaction Buffer whose components were described in Example 3. The following components were added into the wells of a 96-well white plate (29444-020, Corning, N.Y.) at a final volume of 100 μl/well.
(§2) 1. 25 μl of the Reaction Buffer.
(§3) 2. 25 μl of desulfated heparin-coated beads (20 mg/ml, 500 μg/well).
(§4) 3. 25 μl of enzyme (ST2, 0.1 mg/ml, 2.5 μg/well or NDST-2, 17.6 μg/ml, 0.44 μg/well) and the plate was incubated on a shaker with slight agitation for 2 min.
(§5) 4. 25 μl of ^35[S]-PAPS (NEG-010, 0.832 mCi/ml, NEN Life Science, Boston, Mass.) (0.4 μCi/ml, 10 nCi/well).
The plate was sealed and incubated for 2-24 h. Radioactivity of the plate was then read in a Packard TopCount microplate scintillation counter (Packard Instrument, Downers Grove, Ill.). The signal-to-noise ratio is the result of counts-per-minute (CPM) in the presence of enzyme divided by counts-per-minute in the absence of enzyme.
A list of 335 compounds was obtained from a search of the Bristol-Myers Squibb inventoried database using the PHASE program and the bound conformation of PAPS taken from the NDST-1 crystal structure [Kakuta, Y. et al. (1999) J. Biol. Chem. 274, 10673-10676]. The PHASE program is an internally developed program for database searches based on ligand molecular shape and pharmacophroic elements. […] Percentage of inhibition was determined by equation; % Inhibition=(1-cpm with compound/cpm without compound)×100. […]
The plate was incubated at room temperature and 5 h. The plate was read in the TopCount scintillation counter. […] The Km of PAPS is determined as a PAPS concentration by using the Michaelis-Menten equation: y=5×10^−5x+5×10^−5.
Compound A (FIGS. 6A and C) and Compound B (FIGS. 6B and D) in DMSO were added into 96-well white plates at the indicated concentrations. […] The plates were read in the TopCount microplate scintillation counter. Percentage of inhibition was determined by the following equation: % Inhibition=(1-cpm with compound/cpm without compound)×100. IC50 was determined by the Microsoft XLfit program.

In experiment [2] the target is T2, recombinant human wild-type NDST-2 (Homo sapiens, UniProt P52849).
T2 construct: the DNA fragment consisting of nucleotides 133-2651 of the human NDST-2 cDNA; made in house; host or cells: DG44 CHO cells (secreted, harvested from supernatant)
T2 sequence (P52849 40-883 limits assumed): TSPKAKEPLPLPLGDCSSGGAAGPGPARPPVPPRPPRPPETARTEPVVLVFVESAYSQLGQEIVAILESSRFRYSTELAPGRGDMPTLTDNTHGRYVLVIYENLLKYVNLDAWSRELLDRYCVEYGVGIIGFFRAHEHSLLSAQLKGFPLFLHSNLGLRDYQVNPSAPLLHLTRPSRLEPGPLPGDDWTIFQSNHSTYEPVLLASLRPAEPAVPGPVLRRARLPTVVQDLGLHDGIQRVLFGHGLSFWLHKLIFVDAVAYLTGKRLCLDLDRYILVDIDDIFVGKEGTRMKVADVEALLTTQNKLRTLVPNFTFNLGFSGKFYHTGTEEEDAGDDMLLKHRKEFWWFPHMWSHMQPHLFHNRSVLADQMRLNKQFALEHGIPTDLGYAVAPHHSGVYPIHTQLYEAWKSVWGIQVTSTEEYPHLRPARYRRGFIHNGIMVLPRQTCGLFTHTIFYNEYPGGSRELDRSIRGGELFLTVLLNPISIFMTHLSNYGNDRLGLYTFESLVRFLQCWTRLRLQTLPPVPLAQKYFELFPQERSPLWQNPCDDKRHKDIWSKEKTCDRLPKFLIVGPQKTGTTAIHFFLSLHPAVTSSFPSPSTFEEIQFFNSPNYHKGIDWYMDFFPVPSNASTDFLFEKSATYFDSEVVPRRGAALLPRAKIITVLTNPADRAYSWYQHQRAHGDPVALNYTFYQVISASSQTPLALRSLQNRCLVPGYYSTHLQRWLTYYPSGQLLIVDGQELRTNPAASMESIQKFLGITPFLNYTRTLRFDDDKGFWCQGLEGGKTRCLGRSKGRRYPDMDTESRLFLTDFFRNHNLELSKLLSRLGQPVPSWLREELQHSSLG
The experiment in a line: Solid phase SPA assay for N-sulfotransferase activity (wild-type NDST-2). The following applies: wild-type NDST-2 0.4 μg/well, fully desulfated heparin pre-coated WGA-SPA beads, 35[S]-PAPS 10 nCi/well, room temperature 5 h. The procedure: as §1, §2, §3, §4, §5
The plate was sealed and incubated for 2-24 h. Radioactivity of the plate was then read in a Packard TopCount microplate scintillation counter (Packard Instrument, Downers Grove, Ill.). […]
A list of 335 compounds was obtained from a search of the Bristol-Myers Squibb inventoried database using the PHASE program and the bound conformation of PAPS taken from the NDST-1 crystal structure [Kakuta, Y. et al. (1999) J. Biol. Chem. 274, 10673-10676]. […] Percentage of inhibition was determined by equation; % Inhibition=(1-cpm with compound/cpm without compound)×100. […]
Compound A (FIGS. 6A and C) and Compound B (FIGS. 6B and D) in DMSO were added into 96-well white plates at the indicated concentrations. […] The plates were read in the TopCount microplate scintillation counter. […]

The target of experiment [3] is T3, recombinant human NDST-2 (wild-type) (Homo sapiens, UniProt P52849).
T3 construct: the DNA fragment consisting of nucleotides 133-2651 of the human NDST-2 cDNA; made in house; host or cells: DG44 CHO cells (secreted, harvested from supernatant)
T3 sequence (P52849 40-883 limits assumed): T2 sequence (P52849 40-883 limits assumed)
Nature of the experiment: Manual sulfotransferase assay. The following applies: final concentration of 6.25 μM; N-acetyl-de-O-sulfated heparin acceptor, 37° C. for 30 min; read-out: percent inhibition of N-sulfotransferase activity. As for the experimental part:
The manual sulfotransferase assays were conducted basically as described by Pettersson [Pettersson, I. et al. (1991) J. Biol. Chem. 266, 8044-8049; which is hereby incorporated herein by reference]. The following components were added into Eppendorf vials at a final volume of 200 μl/vial.
1. 119 μl of the Reaction Buffer whose components are described in EXAMPLE 3 herein
2. 1 μl of N-acetyl-de-O-sulfated heparin used as a sulfate acceptor (A6039, Sigma, 25 mg/ml, […]).
3. 20 μl of enzyme NDST-2 (17.6 μg/ml, […]).
4. 50 μl of test compounds (compound-treated reaction, 25 μM, 6.25 μM/vial) or 50 μl of 10% DMSO in reaction buffer (untreated reaction).
5. 10 μl of ^35[S]-PAPS used as a sulfate donor (2 μCi/ml, 100 nCi/vial).
All vials were incubated at 37° C. for 30 min. Reactions were stopped by the addition of 400 μl of 100% ethanol and 35 μl of 3 M sodium acetate into the vials. The samples were placed on dry ice for 5 min and then centrifuged at speed of 14,000 rpm for 5 min. The supernatants were discarded while the pellets were washed twice with 70% ethanol and then dissolved in 100 μl of water. […] Radioactivity was determined in a Beckman model LS 3800 scintillation counter (Beckman Coulter, Fullerton, Calif.). […]

As a reminder, the IC50 is the concentration needed to halve the response being measured. What is called inhibition is the drop in the measured response relative to a control, in per cent. With `O=P(O)(O)CC(Cc1ccc(Cl)cc1)CP(=O)(O)O` [Compound A], the IC50 is about 0.399 µM in experiment [1] and about 1.72 µM in experiment [2]. Besides, in experiment [3], the inhibition at 6.25 µM came out at 94.7%.
As a reminder, the Km is the substrate concentration at which the rate is half of its maximum. With `Nc1ncnc2c1ncn2[C@@H]1O[C@H](COP(=O)(O)OS(=O)(=O)O)[C@@H](OP(=O)(O)O)[C@H]1O` [PAPS, adenosine 3′-phosphate 5′-phosphosulfate, reference compound], the Km in experiment [1] (double-reciprocal plot, read-out: Km of PAPS) was about 1 µM.
As for `CC(C)c1ccc(O)c(CN(CP(=O)(O)O)CP(=O)(O)O)c1` [Compound B], the IC50 in experiment [1] was about 0.52 µM; in experiment [2], about 2.44 µM. Moreover, the inhibition at 6.25 µM in experiment [3] is 64.8%.
